Reference: ChEMBL document CHEMBL1201862, “PubChem BioAssay data set” (2004)
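Where inhibition never reached the appropriate level, the endpoint shown equals the highest concentration tested. Otherwise, values were interpolated linearly from a five-concentration, 48-hour dose response in 96-well plates. Abbreviation: GI50, concentration required for 50% inhibition of growth.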 The source made the active and inactive calls. Cut-off read from the data, not from the text of the source: active = GI50 up to about 1.1 µM and inactive = higher.

How the values were obtained:
Assay in all cases: growth of human tumour cells (NCI), 48 h
[1] = test system: UO-31
[2] = test system: UACC-257
[3] = test system: TK-10
[4] = test system: NCI-H522
[5] = test system: COLO 205
[6] = test system: SK-MEL-28
[7] = test system: NCI/ADR-RES
[8] = test system: SNB-19
[9] = test system: LOX IMVI
[10] = test system: SW-620
[11] = test system: OVCAR-8
[12] = test system: HOP-92
[13] = test system: HL-60
[14] = test system: BT-549
[15] = test system: MDA-MB-231
[16] = test system: NCI-H23
[17] = test system: NCI-H226
[18] = test system: CAKI-1
[19] = test system: HT-29
[20] = test system: IGROV-1

Cc1cc(N(CCOS(C)(=O)=O)CCOS(C)(=O)=O)ccc1/C=N/c1ccc(-c2csc(-c3ccc(Br)cc3)n2)cc1
GI50 [1]: 10.2 µM (inactive)
GI50 [2]: 18.9 µM (inactive)
GI50 [3]: 7.57 µM (inactive)
GI50 [4]: 0.8 µM (active)
GI50 [5]: 1.22 µM (inactive)
GI50 [6]: 31.2 µM (inactive)
GI50 [7]: 15.1 µM (inactive)
GI50 [8]: 19.4 µM (inactive)
GI50 [9]: 9.18 µM (inactive)
GI50 [10]: 15.6 µM (inactive)
GI50 [11]: 12.9 µM (inactive)
GI50 [12]: 14.4 µM (inactive)
GI50 [13]: 2.58 µM (inactive)
GI50 [14]: 20.5 µM (inactive)
GI50 [15]: 15.5 µM (inactive)
GI50 [16]: 5.07 µM (inactive)
GI50 [17]: 12.6 µM (inactive)
GI50 [18]: 0.285 µM (active)
GI50 [19]: 7.06 µM (inactive)
GI50 [20]: 5.43 µM (inactive)

COc1cc(/C=C/C(=O)Oc2ccccc2)ccc1C(=O)O/C=C/c1ccccc1
GI50 [1]: > 100 µM (inactive)
GI50 [2]: > 100 µM (inactive)
GI50 [3]: > 100 µM (inactive)
GI50 [4]: > 100 µM (inactive)
GI50 [5]: > 100 µM (inactive)
GI50 [6]: > 100 µM (inactive)
GI50 [7]: > 100 µM (inactive)
GI50 [8]: > 100 µM (inactive)
GI50 [9]: > 100 µM (inactive)
GI50 [10]: > 100 µM (inactive)
GI50 [11]: > 100 µM (inactive)
GI50 [12]: > 100 µM (inactive)
GI50 [13]: > 100 µM (inactive)
GI50 [14]: > 100 µM (inactive)
GI50 [15]: > 100 µM (inactive)
GI50 [16]: > 100 µM (inactive)
GI50 [17]: > 100 µM (inactive)
GI50 [18]: > 100 µM (inactive)
GI50 [19]: > 100 µM (inactive)
GI50 [20]: > 100 µM (inactive)

COc1cc(OC)c(/C=C\c2cc(/C=C/c3c(OC)cc(OC)cc3OC)c3ccccc3[n+]2C)c(OC)c1
GI50 [1]: 7.16 µM (inactive)
GI50 [2]: 2.92 µM (inactive)
GI50 [3]: 16 µM (inactive)
GI50 [4]: 1.96 µM (inactive)
GI50 [5]: 1.67 µM (inactive)
GI50 [6]: 3.39 µM (inactive)
GI50 [7]: > 100 µM (inactive)
GI50 [8]: 8.47 µM (inactive)
GI50 [9]: 4.07 µM (inactive)
GI50 [10]: 2.39 µM (inactive)
GI50 [11]: 1.94 µM (inactive)
GI50 [12]: 2.95 µM (inactive)
GI50 [13]: 2 µM (inactive)
GI50 [14]: 4.1 µM (inactive)
GI50 [15]: 4.03 µM (inactive)
GI50 [16]: 2.76 µM (inactive)
GI50 [17]: 5.96 µM (inactive)
GI50 [18]: 6.61 µM (inactive)
GI50 [19]: 1.83 µM (inactive)
GI50 [20]: 3.24 µM (inactive)

C/C(=C/CC[C@](C)(OC1OC(CO)C(O)C(O)C1O)[C@H]1CC[C@]2(C)[C@@H]1CC[C@@H]1[C@@]3(C)CC[C@H](O)C(C)(C)[C@@H]3C[C@H](O)[C@]12CO)CO (stereo not given in full)
GI50 [1]: > 100 µM (inactive)
GI50 [2]: > 100 µM (inactive)
GI50 [3]: > 100 µM (inactive)
GI50 [4]: > 100 µM (inactive)
GI50 [5]: > 100 µM (inactive)
GI50 [6]: > 100 µM (inactive)
GI50 [7]: > 100 µM (inactive)
GI50 [8]: > 100 µM (inactive)
GI50 [9]: > 100 µM (inactive)
GI50 [10]: > 100 µM (inactive)
GI50 [11]: > 100 µM (inactive)
GI50 [12]: > 100 µM (inactive)
GI50 [13]: > 100 µM (inactive)
GI50 [14]: > 100 µM (inactive)
GI50 [15]: > 100 µM (inactive)
GI50 [16]: > 100 µM (inactive)
GI50 [17]: > 100 µM (inactive)
GI50 [18]: > 100 µM (inactive)
GI50 [19]: > 100 µM (inactive)
GI50 [20]: > 100 µM (inactive)

C/C(=N\NC(=O)Nc1ccccc1Cl)c1ccc(O)cc1
GI50 [1]: > 100 µM (inactive)
GI50 [2]: > 100 µM (inactive)
GI50 [3]: > 100 µM (inactive)
GI50 [4]: > 100 µM (inactive)
GI50 [5]: > 100 µM (inactive)
GI50 [6]: > 100 µM (inactive)
GI50 [7]: > 100 µM (inactive)
GI50 [8]: > 100 µM (inactive)
GI50 [9]: 45.6 µM (inactive)
GI50 [10]: > 100 µM (inactive)
GI50 [11]: > 100 µM (inactive)
GI50 [12]: > 100 µM (inactive)
GI50 [13]: > 100 µM (inactive)
GI50 [14]: > 100 µM (inactive)
GI50 [15]: > 100 µM (inactive)
GI50 [16]: > 100 µM (inactive)
GI50 [17]: > 100 µM (inactive)
GI50 [18]: > 100 µM (inactive)
GI50 [19]: > 100 µM (inactive)
GI50 [20]: > 100 µM (inactive)

CN(C)Cc1cc(/N=N/c2cccc(Cl)c2)ccc1O
GI50 [1]: 8.32 µM (inactive)
GI50 [2]: 14.5 µM (inactive)
GI50 [3]: 10.6 µM (inactive)
GI50 [4]: 11.7 µM (inactive)
GI50 [5]: 19.5 µM (inactive)
GI50 [6]: 13.6 µM (inactive)
GI50 [7]: 5.05 µM (inactive)
GI50 [8]: 18.8 µM (inactive)
GI50 [9]: 4.16 µM (inactive)
GI50 [10]: 10.7 µM (inactive)
GI50 [11]: 14.9 µM (inactive)
GI50 [12]: 6.78 µM (inactive)
GI50 [13]: 17.3 µM (inactive)
GI50 [14]: 15.9 µM (inactive)
GI50 [15]: 9.1 µM (inactive)
GI50 [16]: 19.9 µM (inactive)
GI50 [17]: 17.4 µM (inactive)
GI50 [18]: 21.2 µM (inactive)
GI50 [19]: 17 µM (inactive)
GI50 [20]: 10.9 µM (inactive)

CC1=C[C@@H](C)C[C@]2(C)CC[C@H](O2)[C@]23CC[C@](CO)(C[C@H](O2)[C@@H]2O[C@@](C)(CC2=O)[C@@H](O)[C@H]2CC[C@@]4(CCC[C@@H](O4)[C@H](C)C(=O)O[C@H]4C[C@H]([C@]5(O)OCC[C@H](C)[C@@H]5O)O[C@H]4C=C1)O2)O3
GI50 [1]: 0.0435 µM (active)
GI50 [2]: 0.142 µM (active)
GI50 [3]: 0.0179 µM (active)
GI50 [4]: 0.116 µM (active)
GI50 [5]: 0.00192 µM (active)
GI50 [6]: 0.0124 µM (active)
GI50 [7]: > 5.18 µM (inactive)
GI50 [8]: 0.0197 µM (active)
GI50 [9]: 0.001 µM (active)
GI50 [10]: 0.214 µM (active)
GI50 [11]: 0.0562 µM (active)
GI50 [12]: 0.00163 µM (active)
GI50 [13]: 0.0809 µM (active)
GI50 [14]: 0.0127 µM (active)
GI50 [15]: 0.0225 µM (active)
GI50 [16]: 0.0935 µM (active)
GI50 [17]: 0.00386 µM (active)
GI50 [18]: 0.00724 µM (active)
GI50 [19]: 0.0166 µM (active)
GI50 [20]: 0.00373 µM (active)
